Patent US9895344B2, “Treating various disorders with 7,8-dihydroxyflavone and derivatives thereof” (EMORY UNIVERSITY, priority 2008, dated 2018)

How the values were obtained:
Akt = assay: Western analysis of Akt phosphorylation in hippocampal neurons; assay type: cell-based
Procedure: To further examine whether 7,8-dihydroxyflavone can stimulate TrkB-mediated downstream signaling cascades, Western analysis was performed.
To probe the time course of 7,8-dihydroxyflavone triggered TrkB activation, hippocampal neurons were treated with 7,8-dihydroxyflavone at 500 nM and phosphorylation of Erk and Akt was determined over time by Western analysis. […] Stimulation of Erk and Akt by 7,8-dihydroxyflavone also occurred in a dose dependent manner.

TrkA = TrkA (Mus musculus, UniProt Q3UFB7); assay: Trk activation in cortical neurons from wild-type and TrkB-null pups: TrkA; assay type: cell-based, mice; design: endogenous in cells; host or cells: primary cortical neurons of mouse pups; details: FIG. 21
Procedure: To determine whether 7,8-dihydroxyflavone can selectively activate TrkB receptor and prevent neuronal cell death, cortical neurons were prepared from homozygous pups of TrkB+/−mice, which were mated to the same genotype. […] Glutamate nonselectively elicited weak TrkA phosphorylation in both wild-type and TrkB-null neurons (FIG. 21, row 3).

KA-provoked apoptosis = assay: KA-provoked neuronal cell death in TrkB F616A knockin mice, intraperitoneal (caspase-3 immunoblot); assay type: in vivo
Procedure: To determine if 1NMPP1 would make neurons treated with 7,8-dihydroxyflavone vulnerable to KA-provoked neuronal cell death, TrkF616A knockin mice were fed with 1NMPP1 (25 mM) in drinking water one day prior to pharmacological reagent treatment. The next day, the mice were intraperitoneally injected with KA (25 mg/kg), or 7,8-dihydroxyflavone (5 mg/kg) 4 hours prior to KA injection. The control mice were injected with either KA or 7,8-dihydroxyflavone alone, or the mice were administered 7,8-dihydroxyflavone 4 hours before KA. In 4 days, the mice were sacrificed and the brains were homogenated and ultracentrifuged. The supernatant was employed for SDS-PAGE and immunoblotting analysis.

TrkB [1] = target: T1, TrkB (Mus musculus, UniProt P15209); assay: Immunoblotting of brain lysates from forced swim test mice: TrkB; assay type: in vivo; details: 5 mg/kg, 21 days oral, anti-p-TrkB 817, FIG. 35
T1 construct: from tissue; host or cells: mouse brain
Procedure: To explore whether 4′-DMA-7,8-DHF and 7,8-DHF have any antidepressant effect, a forced swim test (6 minutes, immobility recorded in the last 4 minutes) was conducted after chronic treatment of male C57BL/6J mice (8 mice/group) for 21 days via oral injection.

GST-TrkB ICD = GST-TrkB ICD (Rattus norvegicus, UniProt Q63604); assay: In vitro binding assay with immobilized GST-TrkB ICD on glutathione beads, UV-spectrometry of eluate; details: 500 nM, 4° C., 30 minutes, FIG. 17
Procedure: To further explore the association of 7,8-dihydroxyflavone and the TrkB receptor, an in vitro binding assay was performed. Increasing volumes of GST-TrkB ECD and GST-TrkB ICD were bound to glutathione beads to a total of 250 uL, and 500 nM 7,8-dihydroxyflavone in 250 μl (20% DMSO/80% PBS) was incubated with the beads in the column at 4° C. for 30 minutes. After the incubation, the elute fractions were collected and the concentration of eluted 7,8-dihydroxyflavone was analyzed by UV-spectrometry at a wavelength of 410 nm.

TrkB [2] = target: T2, TrkB (Rattus norvegicus, UniProt Q63604); assay: TrkB receptor dimerization in cotransfected HEK293 cells (GST pull-down); assay type: cell-based; design: expressed in transfected cells; host or cells: HEK293
Procedure: BDNF is known to bind the TrkB receptor and provoke its dimerization (Barbacid, J. Neurobiol., 25:1386-1403, 1994; Klein et al, Cell, 66:395-403, 1991). To explore whether 7,8-dihydroxyflavone triggers TrkB receptor dimerization, HEK293 cells were cotransfected with GST-TrkB and HA-TrkB or HA-TrkA. The cells were then treated with BDNF or small flavone compounds (0.5 μM) for 30 minutes. The cells were harvested, washed once in PBS, and lysed in 1 ml lysis buffer (50 mM Tris, ph 7.4, 150 mM NaCl, 1 mM EDTA, 0.5% Triton X-100, 1.5 mM Na3VO4, 50 mM NaF, 10 mM sodium pyrophosphate, 10 mM sodium β-glycerophosphate, 1 mM phenylmethylsulfonyl fluoride (PMSF), 5 mg/ml aprotinin, 1 mg/ml leupeptin, 1 mg/ml pepstatin A) and centrifuged for 10 minutes at 14,000×g at 4° C. The supernatant was transferred to a fresh tube and transfected TrkB receptor was separated from the supernatant with glutathione beads, and the coprecipitated proteins were resolved on SDS-PAGE.
Target sequence in this assay (Q63604 32-821): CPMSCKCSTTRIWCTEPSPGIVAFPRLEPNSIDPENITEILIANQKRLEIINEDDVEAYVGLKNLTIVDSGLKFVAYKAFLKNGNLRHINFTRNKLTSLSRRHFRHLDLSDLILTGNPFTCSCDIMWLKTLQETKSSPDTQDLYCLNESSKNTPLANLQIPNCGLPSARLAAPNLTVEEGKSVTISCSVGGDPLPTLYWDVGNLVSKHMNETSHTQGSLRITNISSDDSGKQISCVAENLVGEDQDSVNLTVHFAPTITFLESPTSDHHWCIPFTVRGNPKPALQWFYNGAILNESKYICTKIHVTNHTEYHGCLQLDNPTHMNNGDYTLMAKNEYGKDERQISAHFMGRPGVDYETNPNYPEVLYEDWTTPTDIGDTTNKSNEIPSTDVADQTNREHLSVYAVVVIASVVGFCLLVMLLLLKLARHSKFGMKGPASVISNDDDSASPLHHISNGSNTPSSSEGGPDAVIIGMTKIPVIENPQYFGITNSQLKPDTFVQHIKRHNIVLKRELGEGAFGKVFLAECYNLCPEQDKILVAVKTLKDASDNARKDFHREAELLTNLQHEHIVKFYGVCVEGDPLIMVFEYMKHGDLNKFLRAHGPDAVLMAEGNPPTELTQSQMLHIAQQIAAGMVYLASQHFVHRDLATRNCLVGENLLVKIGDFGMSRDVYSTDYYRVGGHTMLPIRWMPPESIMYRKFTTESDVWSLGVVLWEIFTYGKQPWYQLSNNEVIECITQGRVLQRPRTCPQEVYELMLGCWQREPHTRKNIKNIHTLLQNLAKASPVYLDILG
Target sequence in this assay (Q63604 32-821): as above

TrkB [3] = target: T2, TrkB; assay: Tyrosine phosphorylation of Trk receptors in transfected HEK293 cells: TrkB; assay type: cell-based; design: expressed in transfected cells; host or cells: HEK293; details: FIG. 15
Source text: To determine if 7,8-dihydroxyflavone promoted tyrosine phosphorylation of the other Trk receptors, HEK293 cells were transfected with various Trk receptors, followed by treatment with 7,8-dihydroxyflavone.
Target sequence in this assay (Q63604 32-821): as above

[4] = system: ECD and ICD of TrkA receptor; assay: In vitro binding assay: TrkA ECD and ICD
[5] = Toxicity after 3-week chronic treatment (organ pathology, complete blood count); assay type: in vivo, mice
Procedure: To explore whether 4′-dimethylamino-7,8-dihydroxyflavone and 7,8-dihydroxyflavone have any intolerable toxicity, the major organs from mice treated with both compounds at 5 mg/kg/day for 3 weeks were analyzed.

TrkB [6] = target: T2, TrkB; assay: Immunofluorescent staining of hippocampal neurons with anti-phospho TrkB antibody; assay type: cell-based; design: endogenous in cells; host or cells: primary hippocampal neurons; details: 1 μM, 30 minutes, FIG. 8
Procedure: Primary hippocampal neurons were seeded on poly-L lysine coated coverslips in a 12-well plate. After 7 days in vitro, the neurons were treated with 100 ng/ml BDNF or variety of flavone compounds (1 μM) for 30 minutes, and then washed with PBS. Cells were fixed with 3% formaldehyde in PBS at room temperature for 10 minutes. The cells were then permeabilized and blocked by 0.4% Triton X-100 and 2% FBS in PBS at room temperature for 15 minutes, washed with PBS three times and treated with anti-MAP2 (1:200) and anti-phospho-TrkB antibodies (1:500). After staining with FITC- or Rhodamine-conjugated secondary antibody, the coverslips were mounted on slides. Fluorescent images were taken by OLYMPUS IX71 fluorescence microscope (Olympus; Center Valley, Pa.).
BDNF binding to TrkB induces its autophosphorylation and, subsequently, activation of downstream kinase pathways including MAPK and PI3/Akt. To explore whether 7,8-dihydroxyflavone triggers TrkB activation, immunofluorescent staining on hippocampal neurons with anti-phospho TrkB antibody was conducted.
Target sequence in this assay (Q63604 32-821): as above

Chain of TrkA (Q3UFB7 34-799): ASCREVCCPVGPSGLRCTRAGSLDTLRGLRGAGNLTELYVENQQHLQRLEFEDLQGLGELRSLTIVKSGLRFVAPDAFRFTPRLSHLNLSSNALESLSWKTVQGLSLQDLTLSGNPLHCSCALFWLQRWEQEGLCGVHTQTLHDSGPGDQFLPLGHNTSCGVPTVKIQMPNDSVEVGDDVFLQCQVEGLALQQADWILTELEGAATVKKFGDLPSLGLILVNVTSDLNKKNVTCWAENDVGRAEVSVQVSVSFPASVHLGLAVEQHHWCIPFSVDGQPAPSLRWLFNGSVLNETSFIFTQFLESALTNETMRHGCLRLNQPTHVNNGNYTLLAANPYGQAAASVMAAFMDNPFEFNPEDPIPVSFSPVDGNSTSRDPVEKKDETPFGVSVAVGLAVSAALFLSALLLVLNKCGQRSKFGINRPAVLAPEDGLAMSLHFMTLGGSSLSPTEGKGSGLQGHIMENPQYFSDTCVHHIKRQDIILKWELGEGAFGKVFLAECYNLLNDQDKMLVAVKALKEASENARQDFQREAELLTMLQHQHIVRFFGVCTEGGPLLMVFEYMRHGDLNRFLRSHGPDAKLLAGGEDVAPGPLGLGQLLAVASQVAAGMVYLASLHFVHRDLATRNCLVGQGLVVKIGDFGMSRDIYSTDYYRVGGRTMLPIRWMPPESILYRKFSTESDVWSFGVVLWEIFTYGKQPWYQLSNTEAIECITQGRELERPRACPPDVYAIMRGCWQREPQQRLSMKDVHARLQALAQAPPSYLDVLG
T1 sequence (P15209 32-821): as the sequence (Q63604 32-821) above, with M3T, T9S, T10A, I32V, K63R, G84S, T153M, I185L, T394S, N770S counted along it
Chain of GST-TrkB ICD (Q63604 454-821): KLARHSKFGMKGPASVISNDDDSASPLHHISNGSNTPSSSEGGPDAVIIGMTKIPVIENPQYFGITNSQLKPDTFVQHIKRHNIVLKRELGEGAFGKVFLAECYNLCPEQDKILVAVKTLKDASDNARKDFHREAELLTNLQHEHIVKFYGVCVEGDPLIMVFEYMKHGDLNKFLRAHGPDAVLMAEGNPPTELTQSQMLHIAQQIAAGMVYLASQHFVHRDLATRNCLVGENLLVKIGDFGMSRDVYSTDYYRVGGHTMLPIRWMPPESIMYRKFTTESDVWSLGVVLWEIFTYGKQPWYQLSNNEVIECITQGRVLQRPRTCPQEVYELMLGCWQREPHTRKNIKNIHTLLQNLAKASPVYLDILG

O=c1cc(-c2ccccc2)oc2c(O)c(O)ccc12 [7,8-dihydroxyflavone]
time at which Akt phosphorylation peaked (Akt; 500 nM): 30 min | time at which Akt phosphorylation was seen (Akt; 500 nM): 10 min | time by which Akt phosphorylation faded (Akt; 500 nM): 180 min | Akt activation (Western) (Akt; FIG. 9): activated | concentration at which Akt activation was observed (Akt; treatment for 30 minutes): 100 nm | TrkA activation (TrkA): not TrkA receptor | KA-provoked apoptosis (KA-provoked apoptosis; 5 mg/kg intraperitoneally 4 hours prior to KA (25 mg/kg)): suppressed KA-provoked apoptosis | protective effect against KA after 1NMPP1 pretreatment (KA-provoked apoptosis; 1NMPP1 in drinking water one day prior): abolished | apoptosis in TrkB F616A mice, treatment alone without KA (KA-provoked apoptosis; FIG. 24): no effect on apoptosis | TrkB activation in mouse brain (TrkB [1]): provoke TrkB | concentration of eluted compound as GST-TrkB ICD volumes increased (GST-TrkB ICD): remained constant | dimerization of TrkB with TrkA receptor (TrkB [2]; GST-TrkB and HA-TrkA cotransfected): failed to dimerize with TrkA receptor | TrkB dimerization (TrkB [2]; GST-TrkB and HA-TrkB, 0.5 μM, 30 minutes, FIG. 14): provoked TrkB dimerization to a similar manner as BDNF | tyrosine phosphorylation of TrkB receptor (TrkB [3]): elicited tyrosine phosphorylation | binding to TrkA ECD or ICD [4]: Neither the ECD nor ICD of TrkA receptor was capable of binding | toxicity to the mice ([5]; 5 mg/kg/day dose for 3-week chronic treatment): neither compound was toxic | complete blood count (CBC) versus control saline-treated mice ([5]; mouse, in vivo): no significant difference | TrkB tyrosine phosphorylation (immunofluorescence) (TrkB [6]): provoked TrkB tyrosine phosphorylation similar to BDNF
